Laboratory results reported in patent US10668041B2, “Compositions and methods comprising medium chain triglycerides for treatment of epilepsy” (Societe des Produits Nestle SA, priority 2014, dated 2020).
Like-named read-outs stand apart in the source and are kept apart here.

Key:
[1] = Crossover dietary trial: serum AED concentration; format: in vivo, canine; conditions: for concentration at 3 months: both sexes, mixed: 17 different breeds and cross breeds, dog, in vivo, read-out: serum concentration of PB
Experimental: A 6-month prospective, randomized, double blinded, placebo controlled, crossover dietary trial comparing an MCT-containing diet to a standardized placebo diet containing no MCTs in canine epilepsy was performed. Subjects were fed either the MCT or placebo diet for 3 months (Day 1 to Day 90±2 days) followed by a subsequent respective switch of diet for a further 3 months (Day 90 to Day 180±2 days). Relevant data were collected on the following variables at visit 1 (Day −2), visit 2 (Day 90±2 days) and visit 3 (day 180±2 days): seizure frequency; body weight; measurements of serum phenobarbital (PB) and/or (potassium bromide) KBr concentration as appropriate; dynamic bile acids; complete blood cell count; standard clinical serum chemistry; and adverse events.
Seizure frequency refers to the number of seizures per month and seizure-days refers to the number of days in a month with seizure occurrence. The severity of seizures was analyzing using the McNemar test by comparing the presence of cluster seizures between diet groups. Comparisons made between the MCT and placebo standardized diet groups were made using match-paired student's t tests for parametric data and Wilcoxon matched-pairs signed rank test for non-parametric data where both were used two-sided and P<0.05 was considered significant. Non-parametric data are presented as median (25-75% percentile) and parametric data are shown as mean (+/−SD).
The present study used twenty-one dogs of 17 different canine breeds including: American bulldog; 2 Beagles; 2 Border Collies; Boxer; Cavalier King Charles Spaniel; English Bull Terrier; English Springer Spaniel; German Shepherd; Golden Retriever; Lhasa Apso; Mastiff; Rhodesian Ridgeback; Saint Bernard; Siberian Husky; Slovakian Rough Haired Pointer; Welsh Springer Spaniel and 3 Cross breeds. The study population consisted of 15 males, of which 10 were neutered and 5 were intact and 6 females of which 4 were neutered and 2 were intact. The dogs were of 4.59±1.73 years of age and weighed 29.79±14.73 kilograms at start of trial. All 21 dogs received PB. Most dogs were also treated additionally with KBr (n=18). Some dogs were chronically treated with a third AED, imepitoin (n=1) or levetiracetam (n=4). Twelve owners had rectal diazepam or levetiracetam for pulse therapy at home available for the acute treatment of cluster seizure episodes. There was no difference for the acute or chronic treatment regimens between the placebo or MCT phase.

[2] = system: fifteen year old Dalmatian diagnosed with idiopathic epilepsy; assay: Example 2 case: Dalmatian with idiopathic epilepsy; format: in vivo, canine; conditions: treatment subsequently discontinued
Source text: A fifteen year old Dalmatian was diagnosed with idiopathic epilepsy at age 3. Seizure phases of prodrome, aura, ictus, and postictal state were generally one to two […] in length. […] Subsequent treatment was proscribed in the form of an MCT diet (commercially available ProPlan® Senior 7+Chicken and Rice formula formulated to contain 5.6% MCTs, at least 26% crude protein, at least 15% crude fat, and 50% carbohydrates with less than 2% as crude fiber).

Row | Compound | concentration at 3 months ([1]; MCT diet, spread 25.00-36.75 μg/ml, p=0.4233, no significant change) | concentration at 3 months ([1]; placebo-standardized diet, spread 23.50-34.00 μg/ml) | serum concentration of potassium bromide ([1]; MCT diet, spread 1.02-1.61 mg/ml, p=0.4037, no significant change) | serum concentration of potassium bromide ([1]; placebo-standardized diet, spread 1.09-1.89 mg/ml) | side effects [2]
1 | CCC1(c2ccccc2)C(=O)NC(=O)NC1=O [PB, phenobarbital] | 32.5 µg/mL | 26.5 µg/mL | – | – | –
2 | [Br-].[K+] [potassium bromide] | – | – | 1290 µg/mL | 1230 µg/mL | polyphagia, sedation, and ataxia
